Data: PMC6683251, “Flavanol Bioavailability in Two Cocoa Products with Different Phenolic Content. A Comparative Study in Humans” (Nutrients, 2019)
Like-named read-outs stand apart in the source and are kept apart here.

Tests used:
[1] = Urinary excretion of flavanol metabolites (0-24 h) after a single serving of soluble cocoa product (HPLC-ESI-QToF-MS); assay type: in vivo, human; settings: for Excreted in urine, Basal: basal urine (−2–0 h, before intake); for Excreted in urine, Basal / Excreted in urine, Total / Excreted in urine, 0–4 h / Excreted in urine, 4–8 h / Excreted in urine, 8–12 h / Excreted in urine, 12–24 h: mean ± SD, n = 13; for Excreted in urine, Total: 24 h urine
Protocol: They were non-smoker, non-vegetarian, non-pregnant women, who were not taking any medication or nutritional supplements, and were not suffering from any chronic pathology or gastrointestinal disorder. The sample size was estimated attending to similar previous bioavailability studies. The volunteers gave their informed consent prior to participation.
(§1) The present randomized, single-blind study was carried out at the Human Nutrition Unit (HNU) of the Institute of Food Science, Technology and Nutrition (ICTAN). Volunteers attended the HNU on two days, separated by two weeks. Three days previous to each visit, participants were instructed not to consume cocoa products (chocolate, soluble cocoa, etc.), juices, tea, wine, grape must, oranges, tangerines, apples, grapes, strawberries or other berries, beets, onions, soybeans and soy derivatives.
On each intervention day, volunteers arrived at the HNU after an overnight fast. […] The soluble cocoa products, either 15 g of CC or 25 g CC-PP, were dissolved in 200 mL of semi-skimmed milk following manufacturer’s preparation instructions. Plasma was separated by centrifugation (10 min, 3000 rpm, 4 °C) and stored at −80 °C until further analysis. […] A polyphenol-free breakfast, lunch and afternoon snack were provided 2 h, 4 h, and 8 h after consumption of cocoa products, and water and isotonic beverages were available ad libitum.
Urine samples were diluted with an equivalent volume of Milli-Q water (50%) and centrifuged at 14000 rpm (10 min, 4 °C). Supernatants were filtered (0.45 μm pore-size cellulose-acetate membrane filters) and a 5 µL aliquot was directly injected into the LC-ESI-QToF-MS equipment.
The test samples, either 30 μL of the plasma extract or 5 μL of diluted urine, were injected and separated using a mobile phase consisting of Milli-Q water (phase A) and acetonitrile (phase B), both containing 0.1% formic acid, at a flow rate of 0.3 mL/min. The mobile phase was initially programmed with 90% of solvent A and 10% of B. The elution program increased to 30% of solvent B in 10 min. Then, the initial conditions (10% solvent B) were recovered in 5 min and maintained for 5 min.
Due to the lack of standards for certain phase II metabolites, they were tentatively quantified using the calibration curves of their corresponding phenolic precursors. […] The rest of microbial metabolites identified, derivatives of hydroxyphenylpropionic, hydroxyphenylacetic, hydroxybenzoic and hippuric acids, were quantified using their respective commercially available standards. Urine concentration of the excreted metabolites was normalized by the volume excreted in each studied interval. […] Calibration curves were freshly prepared in a pool of both plasma and urine due to matrix effects.
Statistical analyses were carried out using the program SPSS (version 23.0, SPSS, Inc., IBM Company, New York, NY, USA). Significant differences between metabolites excreted in urine after consumption of CC and CC-PP cocoa products were evaluated based on non-parametric Wilcoxon test (p < 0.05). To determine the absorption and elimination of epicatechin metabolites after consumption of the soluble cocoa products, metabolite nutrikinetics were studied using the pharmacokinetic functions of Microsoft Excel, calculating the maximum concentration (Cmax), area under curve (AUC) and time to reach maximum concentration (Tmax). Data are expressed as mean ± standard deviation.

[2] = Plasma nutrikinetics of flavanol metabolites after a single serving of soluble cocoa product (HPLC-ESI-QToF-MS); assay type: in vivo, human; settings: for Detection of un-metabolized compound in the collected biological fluids: plasma and urine, CC and CC-PP; for AUC / Tmax / Cmax: both sexes, oral, mean ± SD, n = 13; for AUC: human plasma 0-8 h, read-out: AUC; for Tmax / Cmax: human plasma; for Tmax: read-out: Tmax; for Cmax: read-out: Cmax
Protocol: The study was carried out in thirteen healthy subjects (3 men and 10 women); the mens’ average age and body mass index were 26.67 ± 3.21 year and 22.47 ± 2.97 kg/m^2, respectively, and womens’ were 32.60 ± 9.85 year and 23.36 ± 3.73 kg/m^2, respectively. They were non-smoker, non-vegetarian, non-pregnant women, who were not taking any medication or nutritional supplements, and were not suffering from any chronic pathology or gastrointestinal disorder. The sample size was estimated attending to similar previous bioavailability studies. The volunteers gave their informed consent prior to participation.
as §1, with “derivatives. In addition, volunteers were asked to complete a 24 h food intake recall the day before they attended the HNU in order to monitor any possible food restriction incompliance.” for “derivatives.”
On each intervention day, volunteers arrived at the HNU after an overnight fast. Prior to the intake of the soluble cocoa product, a nurse inserted a cannula in the cubital vein of the non-prevailing arm of the volunteers and blood samples were collected into EDTA-coated tubes at baseline (t = 0) and 0.5, 1, 2, 3, 4, 6, and 8 h after consuming the corresponding cocoa product. The soluble cocoa products, either 15 g of CC or 25 g CC-PP, were dissolved in 200 mL of semi-skimmed milk following manufacturer’s preparation instructions. Plasma was separated by centrifugation (10 min, 3000 rpm, 4 °C) and stored at −80 °C until further analysis. Urine samples were collected at different time intervals (t = −2–0, 0–4, 4–8, 8–12, and 12–24 h) in urine collection flasks that contained 0.5 g of ascorbic acid as preservative and were aliquoted and frozen at −20 °C until analysis. A polyphenol-free breakfast, lunch and afternoon snack were provided 2 h, 4 h, and 8 h after consumption of cocoa products, and water and isotonic beverages were available ad libitum.
A liquid–liquid extraction and protein precipitation with acetonitrile was used to isolate metabolites from plasma. A 1 mL defrosted plasma sample was mixed with 50 μL of ascorbic acid (0.2 g/mL). After vortexing the aqueous mixture, it was added drop wise to 750 μL of cold acetonitrile and vortexed for 2 min before centrifuging at 12,000 rpm for 10 min at 4 °C. The supernatant was separated, and the pellet was re-extracted twice more following the same procedure. Supernatants were combined and reduced to dryness under a stream of nitrogen at 30 °C. The dried samples were resuspended in 150 μL of aqueous formic acid (0.1%) containing 10% acetonitrile acidified with 0.1% formic acid and centrifuged at 4 °C for 20 min at 14,000 rpm. The final supernatant was collected, filtered (0.45 μm pore-size, cellulose-acetate membrane filters, Albet, Dassel (Germany)) and 30 μL were analyzed by high-performance liquid chromatography coupled to electrospray ionisation and quadrupole time-of-flight mass spectrometry (HPLC-ESI-QToF-MS).
Analyses were performed on an Agilent 1200 series LC system coupled to an Agilent 6530A Accurate-Mass Quadrupole Time-Of-Flight (Q-ToF) with ESI-Jet Stream Technology (Agilent Technologies). Compounds were separated on a reverse-phase Ascentis Express C18 (15 cm × 3 mm, […]) column (Sigma-Aldrich Química, Madrid) preceded by a Supelco 55215-U guard column at 30 °C. […]

[3] = after CC-PP (68.25 mg flavanols)
[4] = 19.8 mg, after CC (19.80 mg flavanols)
[5] = after CC (15 g in 200 mL semi-skimmed milk, 19.80 mg flavanols)
[6] = after CC-PP (25 g in 200 mL semi-skimmed milk, 68.25 mg flavanols)

SMILES | Detection of un-metabolized compound in urine ([1]; any of the interventions (CC, CC-PP)) | Detection of un-metabolized compound in the collected biological fluids [2] | Excreted in urine, Basal ([1]; CC intervention) | Excreted in urine, Basal ([1]; CC-PP intervention) | Excreted in urine, Total ([1]; after CC (19.80 mg flavanols)) [µmol] | Excreted in urine, 0–4 h ([1]; after CC (19.80 mg flavanols)) | Excreted in urine, 4–8 h ([1]; after CC (19.80 mg flavanols)) [µmol] | Excreted in urine, 8–12 h ([1]; after CC (19.80 mg flavanols)) | Excreted in urine, 12–24 h ([1]; after CC (19.80 mg flavanols)) | Excreted in urine, Total [1, 3] [µmol] | Excreted in urine, 0–4 h [1, 3] | Excreted in urine, 4–8 h [1, 3] [µmol] | Excreted in urine, 8–12 h [1, 3] | Excreted in urine, 12–24 h [1, 3] | AUC [2, 4] [µM·h] | Tmax [2, 4] [h] | AUC [2, 3] [µM·h] | Cmax [2, 5] [nM] | Tmax [2, 3] [h] | Cmax [2, 6] [nM]
Oc1cc(O)c2c(c1)O[C@H](c1ccc(O)c(O)c1)[C@H](O)[C@H]2c1c(O)cc(O)c2c1O[C@H](c1ccc(O)c(O)c1)[C@H](O)C2 [PB2 dimer, procyanidin B2] | Neither epicatechin nor PB2 dimer was detected in urine | Neither un-metabolized epicatechin and catechin nor procyanidins B1 and B2 were detected |  |  |  |  |  |  |  |  |  |  |  |  |  |  |  |  |  | 
O=C1CCC(Cc2ccc(O)c(OC3OC(C(=O)O)C(O)C(O)C3O)c2)O1 (stereo not drawn) [HPVL-3′-glucuronide, 5-(4′-Hydroxyphenyl)-γ-valerolactone-3′-glucuronide] |  |  | <L.Q. | <L.Q. | 0.600 ± 0.232 | <L.Q. | 0.497 ± 0.204 | 0.103 ± 0.028 µmol | <L.Q. | 2.358 ± 0.766 | <L.Q. | 1.802 ± 0.567 | 0.274 ± 0.060 µmol | 0.282 ± 0.130 µmol | 0.106 ± 0.021 | 5.6 ± 0.8 | 1.43 ± 0.727 | 31 ± 4 | 5 ± 1.2 | 357 ± 200
COc1cc([C@H]2Oc3cc(OS(=O)(=O)O)cc(O)c3C[C@H]2O)ccc1O (single isomer, unassigned) [Epicatechin-methoxy-sulfate (isomer 2), Epicatechin-methoxy-sulfate] |  |  |  |  | 0.428 ± 0.062 | 0.181 ± 0.032 µmol | 0.247 ± 0.030 | <L.Q. | <L.Q. | 1.200 ± 0.293 | 0.566 ± 0.152 µmol | 0.557 ± 0.120 | 0.077 ± 0.021 µmol | <L.Q. |  |  | 0.145 ± 0.107 |  | 1.3 ± 0.5 | 41 ± 4
O=C(O)C1OC(Oc2cc(C3Oc4cc(O)cc(O)c4CC3O)ccc2O)C(O)C(O)C1O (stereo not drawn) [Epicatechin-3′-glucuronide] |  |  |  |  | 0.622 ± 0.130 | 0.355 ± 0.071 µmol | 0.267 ± 0.059 | <L.Q. | <L.Q. | 1.653 ± 0.462 | 0.958 ± 0.272 µmol | 0.695 ± 0.190 | <L.Q. | <L.Q. | 0.072 ± 0.028 | 1.5 ± 0.5 | 0.11 ± 0.066 | 25 ± 1 | 1.4 ± 0.8 | 37 ± 1
O.Oc1cc(O)c2c(c1)O[C@H](c1ccc(O)c(O)c1)[C@@H](O)C2 [catechin] |  | Neither un-metabolized epicatechin and catechin nor procyanidins B1 and B2 were detected |  |  |  |  |  |  |  |  |  |  |  |  |  |  |  |  |  | 
Oc1cc(O)c2c(c1)O[C@H](c1ccc(O)c(O)c1)[C@H](O)[C@H]2c1c(O)cc(O)c2c1O[C@H](c1ccc(O)c(O)c1)[C@@H](O)C2 [procyanidins B1, procyanidin B1] |  | Neither un-metabolized epicatechin and catechin nor procyanidins B1 and B2 were detected |  |  |  |  |  |  |  |  |  |  |  |  |  |  |  |  |  | 
